What all share (format): functional
The subject of assay [1] is Bacillus subtilis. Description: Antimicrobial activity against Bacillus subtilis at 2000 ug after 24 hr by disk diffusion method. The note with it: read-out: IZ. A general note: In agar diffusion tests the substance spreads into inoculated agar from a disc or well.
Assay [2] deals with Bacillus subtilis. Description: Antimicrobial activity against Bacillus subtilis at 2000 ug after 24 hr by disk diffusion method relative to control.
For assay [3], the system named is Staphylococcus aureus. The assay is described as follows: Antimicrobial activity against Staphylococcus aureus at 2000 ug after 24 hr by disk diffusion method. The note with it: read-out: IZ.
Assay [4] concerns Staphylococcus aureus. Description: Antimicrobial activity against Staphylococcus aureus at 2000 ug after 24 hr by disk diffusion method relative to control.
Assay [5] relates to Pseudomonas aeruginosa. The assay is described as follows: Antimicrobial activity against Pseudomonas aeruginosa at 2000 ug after 24 hr by disk diffusion method relative to control.
The test system of assay [6] is Klebsiella pneumoniae. The assay is described as follows: Antimicrobial activity against Klebsiella pneumoniae at 2000 ug after 24 hr by disk diffusion method relative to control.
In assay [7] the test system is Escherichia coli. Description: Antimicrobial activity against Escherichia coli at 2000 ug after 24 hr by disk diffusion method relative to control.
For assay [8], the system named is Klebsiella pneumoniae. The assay is described as follows: Antimicrobial activity against Klebsiella pneumoniae at 2000 ug after 24 hr by disk diffusion method. The note with it: read-out: IZ.
Assay [9] has as its system Escherichia coli. Description: Antimicrobial activity against Escherichia coli at 2000 ug after 24 hr by disk diffusion method. To be noted: read-out: IZ.
Assay [10] relates to Pseudomonas aeruginosa. The assay is described as follows: Antimicrobial activity against Pseudomonas aeruginosa at 2000 ug after 24 hr by disk diffusion method. The note with it: read-out: IZ.

We go through 13 molecules from ChEMBL document CHEMBL3045098, “Petra, Osiris and Molinspiration (POM) together as a successful support in drug design: antibacterial activity and biopharmaceutical characterization of some azo Schiff bases” (2012).

Activity calls are given as the source filed them. The rule behind the calls is not given here.

For `COc1ccc(/N=N/c2cc(/C=N/c3cccc(OC)c3)c(O)c(OC)c2)cc1`, the zone of inhibition at 2000 µg/disc in assay [1] and in assay [3] was 10 mm each time. Moreover, the “inhibition (INH)” value in [2] and in assay [4] was 45% in each case. Besides, the inhibition result in assay [5], in [6] and in assay [7] was “inactive” in each case.

With `CN[C@@H]1[C@H](O[C@H]2[C@H](O[C@H]3[C@H](O)[C@@H](O)[C@H](N=C(N)N)[C@@H](O)[C@@H]3N=C(N)N)O[C@@H](C)[C@]2(O)C=O)O[C@@H](CO)[C@H](O)[C@H]1O` [STREPTOMYCIN], the zone of inhibition at 2000 µg/disc in [1] worked out at 14 mm; in assay [8], 14 mm; in [3] it was 10 mm; in assay [9], 14 mm; in [10], 14 mm. In addition, the “inhibition (INH)” value in [2] was 64%; in assay [4], 45%; in [5] it was 64%; in assay [6] it was 64%; in assay [7], 64%.

On to `COc1ccc(/N=N/c2cc(/C=N/c3ccc(Oc4cccc(/N=C/c5cc(/N=N/c6ccc(OC)cc6)cc(OC)c5O)c4)cc3)c(O)c(OC)c2)cc1`, for which the inhibition result in [5], in assay [6] and in [7] was “inactive” each time.

With `COc1ccc(/N=N/c2cc(/C=N/c3ccccc3OC)c(O)c(OC)c2)cc1`, the inhibition result in [5], in assay [6] and in assay [7] was “inactive” each time.

On to `CC1(C)S[C@@H]2[C@H](NC(=O)[C@H](N)c3ccccc3)C(=O)N2[C@H]1C(=O)O`, for which the inhibition result in assay [5], in [6] and in [7] was “inactive” in each case.

`COc1ccc(/N=N/c2cc(/C=N/c3ccccc3C)c(O)c(OC)c2)cc1`: the inhibition entry in assay [5], in [6] and in [7] was “inactive” throughout.

Consider `COc1ccc(/N=N/c2cc(C=O)c(O)c(OC)c2)cc1`, for which the zone of inhibition at 2000 µg/disc in assay [1] and in [3] was 10 mm each time. Moreover, the “inhibition (INH)” value in assay [2] and in [4] was 45% throughout. The inhibition result in assay [5], in assay [6] and in assay [7] was “inactive” in each case.

For `COc1ccc(/N=N/c2cc(/C=N/c3ccc(S(=O)(=O)c4cccc(/N=C/c5cc(/N=N/c6ccc(OC)cc6)cc(OC)c5O)c4)cc3)c(O)c(OC)c2)cc1`, the figures for the zone of inhibition at 2000 µg/disc in [1] and in assay [3] were 14 mm and 10 mm, respectively. Moreover, the “inhibition (INH)” value worked out at 64% in assay [2] and 45% in [4]. Further, the inhibition entry in assay [5], in assay [6] and in [7] was “inactive” each time.

As for `COc1ccc(/N=C/c2cc(/N=N/c3ccc(OC)cc3)cc(OC)c2O)cc1`, the inhibition entry in assay [5], in [6] and in assay [7] was “inactive” each time.

On to `COc1ccc(/N=N/c2cc(/C=N/c3cccc(O)c3)c(O)c(OC)c2)cc1`, for which the zone of inhibition at 2000 µg/disc in assay [1] and in assay [3] was 10 mm throughout. The “inhibition (INH)” value in [2] and in [4] was 45% each time. Moreover, the inhibition entry in [5], in assay [6] and in assay [7] was “inactive” each time.

As for `COc1ccc(/N=N/c2cc(/C=N/c3ccccc3)c(O)c(OC)c2)cc1`, the zone of inhibition at 2000 µg/disc in [1] and in assay [3] was 10 mm each time. The “inhibition (INH)” value in assay [2] and in assay [4] was 45% in each case. The inhibition entry in [5], in assay [6] and in assay [7] was “inactive” throughout.

Regarding `COc1ccc(/N=N/c2cc(/C=N/c3cccc(C)c3)c(O)c(OC)c2)cc1`, the zone of inhibition at 2000 µg/disc in assay [1] and in assay [3] was 10 mm in each case. The “inhibition (INH)” value in assay [2] and in assay [4] was 45% in each case. Besides, the inhibition entry in assay [5], in assay [6] and in assay [7] was “inactive” in each case.

With `COc1ccc(/N=N/c2cc(/C=N/Cc3ccccc3)c(O)c(OC)c2)cc1`, the inhibition entry in assay [5], in assay [6] and in assay [7] was “inactive” in each case.
